According to patent US11944704B2, “Coenzyme Q10 aerosol” (UNM Rainforest Innovations, priority 2015, dated 2024):

Test: Maximum solubility of CoQ10 in coconut oil
Format: physicochemical
Conditions: in neobee (coconut oil)

Compound: COC1=C(OC)C(=O)C(C/C=C(\C)CC/C=C(\C)CC/C=C(\C)CC/C=C(\C)CC/C=C(\C)CC/C=C(\C)CC/C=C(\C)CC/C=C(\C)CC/C=C(\C)CCC=C(C)C)=C(C)C1=O [Emulsion Q10, 2-[(2E,6E,10E,14E,18E,22E,26E,30E,34E)-3,7,11,15,19,23,27,31,35,39-Decamethyltetraconta-2,6,10,14,18,22,26,30,34,38-decaenyl]-5,6-dimethoxy-3-methylcyclohexa-2,5-diene-1,4-dione]
- maximum solubility: 6%
